Tests used:
[1] = HPLC analysis of mixtures of DUAC gel and TAZORAC cream (degradation of tazarotene in the presence of benzoyl peroxide); format: physicochemical; conditions: fresh samples
Procedure: DUAC® gel (1% clindamycin and 5% benzoyl peroxide marketed by Stiefel Laboratories, Inc.) and TAZORAC® cream (0.1% tazarotene marketed by Allergan, Inc.) have been successfully used to treat facial acne. However, these topical treatments are not approved for concomitant use. To study whether tazarotene is susceptible to oxidative decomposition by benzoyl peroxide, an in vitro laboratory study was conducted wherein a mixture of DUAC gel and TAZORAC cream was prepared.
Samples were prepared by taking equal portions of DUAC gel and TAZORAC cream and mixing them thoroughly at room temperature with a spatula in a suitable container to form a uniform mixture. The initial samples were analyzed immediately by HPLC. The other samples were placed into an oven at 35° C. and removed for analysis after one, two, four, six and eight hours. An allowance was made for product evaporation over the course of the study.

A431 cells = test: PMA-induced IL-6 release from A431 cultures; format: cell-based, human; conditions: PMA 10 ng/mL; retinoids 0.01 to 1 μg/mL; 48 hours
Procedure: A431 cells were purchased from ATCC(CRL-1555). Cells were seeded onto 12-well plates at a density of 250,000 cells/well and incubated for 72 hours at 37° C./5% CO2 to allow cells to grow to confluency. Phorbol-12-myristate 13-acetate (PMA), diluted in DMSO (10 mg/mL stock), was added in a concentration of 10 ng/mL and retinoids were added in concentrations of 0.01 to 1 μg/mL from a 10 mg/mL stock solution in DMSO. Cultures were incubated for 48 hours at 37° C. At the end of the incubation period, growth media was collected and cell viability was determined using a CellTiterGlo assay kit (Promega). Concentrations of IL-6 were determined by ELISA and normalized based on cell viability.
It is known that PMA up regulates IL-6 expression through transactivation of the nuclear transcription factor, AP-1. Retinoids, such as tretinoin, are known to inhibit transactivation of AP-1 via retinoic acid receptors.

[2] = Metabolism in the presence of human skin microsomes; conditions: for Half-life / k constant: HSkM
Procedure: (§2) Hepatic microsomal reactions were carried out in microcentrifuge tubes in the following manner. Human liver microsomes (0.5 or 1.0 mg/ml protein), Test Article (1 or 10 μM), paraoxon (0, 10 or 100 μM), NADPH regenerating system (10 mM glucose-6-phosphate, 1 unit/ml glucose-6-phosphate dehydrogenase, 1 mM NADP^+), magnesium chloride (5 mM) in 0.1 M potassium phosphate buffer, pH 7.4 were incubated at 37° C. in a shaking water bath. Reactions were initiated with the addition of substrate with the exception of the zero-time incubations. The total reaction volume was 0.2 ml. The reactions were incubated for 15, 30, 45 or 60 minutes, terminated with 0.2 ml ice-cold acetonitrile and then placed on ice. For zero-time incubations, ice cold acetonitrile was added to the mixture containing microsomes, along with NADPH regenerating system, magnesium chloride in phosphate buffer and the Test Article. Each time point was carried out in triplicate.
(§3) Five time points were chosen, but because of the limitation of human skin microsome supply, each one was carried out in duplicate. Skin microsomal reactions were carried out as described above for hepatic microsomal reactions with the following two exceptions. Firstly, the total reaction volume was 0.1 mL. Secondly, incubations were terminated with 0.1 mL acetonitrile.

[3] = Reaction with benzoyl peroxide (BPO) in solution; format: physicochemical; conditions: at all three temperatures (35° C., room temperature, 5° C.); BPO 50-fold excess by weight
Procedure: The reaction of (i) tazarotene, tazarotene benzoate, hydroxy tazarotenic acid and tazarotene nicotinate with (ii) benzoyl peroxide (BPO) in 30% aqueous solutions was monitored at 35° C., room temperature and 5° C.
Individual solutions of each compound were prepared at approximately 0.25 mg/mL in acetonitrile:water (6:4 by volume). Reactions were initiated by mixing equal volumes of the test solution with an approximately 12 mg/mL solution of benzoyl peroxide (BPO) in acetonitrile:water (4:1 by volume). Therefore, the reaction solution contained approximately 0.125 mg/mL of the test compound and the BPO was at a 50-fold excess by weight (i.e. at the same ratio as a product containing 0.1% tazarotene and 5% BPO). Aliquots of the reaction solutions were stored at various temperatures protected from light.
Reactions were quenched by diluting 30 μL of the reaction solution to 50 mL with a diluent (acetonitrile:water in a ratio of 1:1 by volume) and storing the sample at 10° C. in the LC/MS sample tray or at 5° C. for storage. Duplicate samples were prepared at each time point (three at the start of the reaction) and the results were averaged together to generate a single value.
Samples were analyzed on a Waters Acquity UPLC with a Waters Xevo TQMS using an ESI source in the positive mode controlled by MassLynx V4.1 software. […]

in vitro = conditions: human, human skin microsomes, pH 7.4
Procedure: as §2, §3

SkinEthic RHE cultures [4] = test: qRT-PCR of K10, K19 and filaggrin expression in SkinEthic RHE cultures; format: cell-based, human; conditions: 6 μl test article, 72 hours
Procedure: (§1) SkinEthic RHE cultures were transferred into 6-well plates containing 1.0 mL/well growth media. The cultures were equilibrated at 37° C. and the media was changed daily. The cultures were subsequently placed in 60 mm petri dishes containing 3.5 mL growth media. 6 μl aliquots of the Test Articles shown in Table 3 were applied to duplicate cultures. The cultures were incubated at 37° C. for 72 hours. At the end of the incubation period, the growth media was collected and stored at −20° C. The tissues were cut in half and one half was placed in 10% NBF for histology, while the other half was placed in RNAlater™ solution (Ambion). The following analyses were performed: a) IL-1α and IL-8 activity assay; b) Hand E staining; c) Immunohistochemistry for K10, K19 and filaggrin; and d) qRT-PCR to quantitate K10, K19 and filaggrin expression.

SkinEthic RHE cultures [5] = test: H and E staining and immunohistochemistry for K10, K19 and filaggrin in SkinEthic RHE cultures; format: cell-based, human; conditions: 6 μl test article, 72 hours
Procedure: as §1

Compound | tazarotene lost ([1]; mixture of DUAC gel and TAZORAC cream, after four hours) | PMA-induced IL-6 release (A431 cells) | rate of metabolism by human skin microsomes relative to human liver microsomes [2] | Half-life ([2]; 1 μM, Complete) [h] | k constant ([2]; 1 μM, Complete) | Half-life ([2]; 1 μM, Without NADPH) [h] | k constant ([2]; 1 μM, Without NADPH) | k constant ([2]; 10 μM, Complete) | Half-life ([2]; 10 μM, without NADPH) [h] | k constant ([2]; 10 μM, without NADPH) | metabolized ([2]; after 150 min, 2 mg/ml human skin microsomes) [%] | less reactive with BPO than tazarotene and hydroxy tazarotenic acid [3] [times] | half-life at 10 µM (in vitro) [h] | % Label Tazarotene Benzoate ([1]; 35° C., 4 hours) [% Label] | down regulation of K10 gene expression compared to untreated and vehicle controls (SkinEthic RHE cultures [4]) | down regulation of filaggrin gene expression compared to untreated and vehicle controls (SkinEthic RHE cultures [4]) | filaggrin by immunohistochemistry (SkinEthic RHE cultures [5])
CCOC(=O)c1ccc(C#Cc2ccc3c(c2)C(C)(C)CCS3)nc1 [Tazarotene, ethyl 6-[2-(4,4-dimethylthiochroman-6-yl)-ethynyl nicotinate] | approximately 22% |  |  |  |  |  |  |  |  |  |  |  |  |  |  |  | 
CCOC(=O)c1ccc(C#Cc2ccc3c(c2)C(C)(C)CC(OC(=O)c2ccccc2)S3)nc1 (centres unmarked) [Compound 4, 6-(2-(2-benzoyloxy-4,4-dimethylthiochroman-6-yl)ethynyl)nicotinic acid, ethyl ester] |  | significantly decreased | slower rate | 8.25 | −0.0014 | 3.62 | −0.0032 | −0.0017 | 7.7 | −0.0015 | 20 | ~25 | 6.8 | ~6.3 | uninterpretable | equivocal | down regulated

— patent US9062037B2, “Tazarotene derivatives” (Stiefel Laboratories, Inc., priority 2009, dated 2015)
